Assay results as given in patent publication US20250051344A1, “BIFUNCTIONAL SELECTIVE DEGRADERS OF SMARCA2 AND THERAPEUTIC USES THEREOF” (Nurix Therapeutics, Inc., priority 2023, published 2025).

Columns and labels:
[1] = biological target: T1, SMARCA2 (Homo sapiens, UniProt P51531); test: SMARCA2 Cellular Degradation Assay (Western blot analysis on Jess platform); assay type: cell-based; conditions: for DC50 / Dmax: cellular degradation; for Fold Selectivity SMARCA4/2: ratio DC50 SMARCA4 / DC50 SMARCA2
T1 construct: endogenous in cells
Protocol: SMARCA2 Cellular Degradation Assay
Western Blot Analysis for SMARCA2 Degradation
Frozen cell pellets were thawed on ice and resuspended in RIPA lysis buffer (Millipore, Cat. No. 20-188) supplemented with 0.2% SDS (Fisher Scientific, Cat. No. 24730020), 200 mM β-glycerophosphate (Alfa Aesar, Cat. No. J62121), 500 mM NaF (Rigaku, Cat. No. 1008046), protease inhibitor (1 tablet per 10 mL, Sigma, Cat. No. 11836170001), 250 U/μL benzonase (Millipore, Cat. No. 71206), 200 mM sodium orthovanadate (FivePhoton, Cat. No. ActVO-4), and 100 mM PMSF (Sigma, Cat. No. 10837091001). 50 μL lysis buffer was used to lyse each pellet containing 5×10E5-1×10E6 live cells extracted from tumors. Lysates were centrifuged for 10 mins at 20,817×g and lysate supernatants were saved for further analysis. Protein levels were determined by the BCA Assay performed according to manufacturer's protocol (EMD Millipore, Cat. No. 71285-3). Samples were evaluated by Western blot analysis on the Jess Platform (ProteinSimple). Lysates were diluted with complete lysis buffer (as described above) and 5 μg of total proteins were loaded onto each capillary. Samples were prepared using the ProteinSimple EZ Standard Pack 1 (Cat. No. PS-ST01EZ-8; containing tubes with powdered (5×) Fluorescent Master Mix, DTT, and biotinylated ladder) and run using the ProteinSimple 25-Capillary Cartridge kit (Cat. No. SM-W004; containing 25-capillary cartridge Wash reagent, and 10× Sample Buffer reagent), the ProteinSimple Anti-Rabbit HRP Detection Module for Jess (Cat. No. DM-001; containing Antibody Diluent, anti-rabbit secondary antibody, Luminol-S, Peroxide, and Streptavidin-HRP), and the ProteinSimple Anti-Mouse NIR Detection Module for Jess (Cat. No. DM-009; containing Antibody Diluent, anti-mouse NIR secondary antibody, and Streptavidin-NIR) as the following describes. The DTT was reconstituted with 40 μL water to make a 400 mM solution, 20 μL of the DTT solution plus 20 μL of 10× Sample Buffer were added to reconstitute the 5× Fluorescent Master Mix, and 20 μL of H2O was used to reconstitute the biotinylated ladder. For each sample, lysate (4 μL) was combined with 5× Fluorescent Master Mix (1 μL) and heated at 95° C. for 5 minutes. Samples were cooled and stored on ice. Primary antibody solution was made using anti-SMARCA2 antibody (Abcam, Cat. No. 240648, 1:10) and anti-beta-Actin antibody (Cell Signaling Technology, Cat. No. 3700S, 1:25) in antibody diluent. The 25-capillary cartridges were prepared per standard ProteinSimple protocol with each sample in a column. For the biotinylated ladder in column 1, the following were added: 5 µL of ladder sample in Row A, 10 μL of antibody diluent in Rows B and C, 10 μL of Streptavidin-NIR in Row D, and 15 μL of a 50:50 Luminol-s/Peroxide solution in Row E. For each test sample (columns 2-25), the following were added per column: 5 μL of sample in Row A, 10 μL of antibody diluent in Row B, 10 μL of primary antibody solution in Row C, 10 μL of secondary antibody in Row D, and 15 μL of a 50:50 Luminol-S/Peroxide solution in Row E. 500 μL wash buffer was added to the wash buffer wells in the cartridge and cartridge was spun at 1000×g for 5 minutes prior to loading into the Jess. Samples were run using the Chemiluminescence and Fluorescence immunoassays in the ProteinSimple Compass for SimpleWestern program (version 5.0.0). After running, SMARCA2, actin, and background curves were identified in the Compass software; note that in the Compass software, the electropherograms are also visualized as bands for comparison with standard Western blot outputs. The electropherogram area reading for each sample curve was normalized to that of the corresponding actin curve per column following background (capillary background) subtraction using the following equation: […]
Following normalization, the percentage of SMARCA2 remaining per sample relative to the vehicle control was calculated as follows: […]

[2] = biological target: T2, SMARCA4 (Homo sapiens, UniProt P51532); test: Cellular degradation assay, SMARCA4 (Table 1); assay type: cell-based
T2 construct: endogenous in cells
T2 sequence (P51532 whole entry, species assumed): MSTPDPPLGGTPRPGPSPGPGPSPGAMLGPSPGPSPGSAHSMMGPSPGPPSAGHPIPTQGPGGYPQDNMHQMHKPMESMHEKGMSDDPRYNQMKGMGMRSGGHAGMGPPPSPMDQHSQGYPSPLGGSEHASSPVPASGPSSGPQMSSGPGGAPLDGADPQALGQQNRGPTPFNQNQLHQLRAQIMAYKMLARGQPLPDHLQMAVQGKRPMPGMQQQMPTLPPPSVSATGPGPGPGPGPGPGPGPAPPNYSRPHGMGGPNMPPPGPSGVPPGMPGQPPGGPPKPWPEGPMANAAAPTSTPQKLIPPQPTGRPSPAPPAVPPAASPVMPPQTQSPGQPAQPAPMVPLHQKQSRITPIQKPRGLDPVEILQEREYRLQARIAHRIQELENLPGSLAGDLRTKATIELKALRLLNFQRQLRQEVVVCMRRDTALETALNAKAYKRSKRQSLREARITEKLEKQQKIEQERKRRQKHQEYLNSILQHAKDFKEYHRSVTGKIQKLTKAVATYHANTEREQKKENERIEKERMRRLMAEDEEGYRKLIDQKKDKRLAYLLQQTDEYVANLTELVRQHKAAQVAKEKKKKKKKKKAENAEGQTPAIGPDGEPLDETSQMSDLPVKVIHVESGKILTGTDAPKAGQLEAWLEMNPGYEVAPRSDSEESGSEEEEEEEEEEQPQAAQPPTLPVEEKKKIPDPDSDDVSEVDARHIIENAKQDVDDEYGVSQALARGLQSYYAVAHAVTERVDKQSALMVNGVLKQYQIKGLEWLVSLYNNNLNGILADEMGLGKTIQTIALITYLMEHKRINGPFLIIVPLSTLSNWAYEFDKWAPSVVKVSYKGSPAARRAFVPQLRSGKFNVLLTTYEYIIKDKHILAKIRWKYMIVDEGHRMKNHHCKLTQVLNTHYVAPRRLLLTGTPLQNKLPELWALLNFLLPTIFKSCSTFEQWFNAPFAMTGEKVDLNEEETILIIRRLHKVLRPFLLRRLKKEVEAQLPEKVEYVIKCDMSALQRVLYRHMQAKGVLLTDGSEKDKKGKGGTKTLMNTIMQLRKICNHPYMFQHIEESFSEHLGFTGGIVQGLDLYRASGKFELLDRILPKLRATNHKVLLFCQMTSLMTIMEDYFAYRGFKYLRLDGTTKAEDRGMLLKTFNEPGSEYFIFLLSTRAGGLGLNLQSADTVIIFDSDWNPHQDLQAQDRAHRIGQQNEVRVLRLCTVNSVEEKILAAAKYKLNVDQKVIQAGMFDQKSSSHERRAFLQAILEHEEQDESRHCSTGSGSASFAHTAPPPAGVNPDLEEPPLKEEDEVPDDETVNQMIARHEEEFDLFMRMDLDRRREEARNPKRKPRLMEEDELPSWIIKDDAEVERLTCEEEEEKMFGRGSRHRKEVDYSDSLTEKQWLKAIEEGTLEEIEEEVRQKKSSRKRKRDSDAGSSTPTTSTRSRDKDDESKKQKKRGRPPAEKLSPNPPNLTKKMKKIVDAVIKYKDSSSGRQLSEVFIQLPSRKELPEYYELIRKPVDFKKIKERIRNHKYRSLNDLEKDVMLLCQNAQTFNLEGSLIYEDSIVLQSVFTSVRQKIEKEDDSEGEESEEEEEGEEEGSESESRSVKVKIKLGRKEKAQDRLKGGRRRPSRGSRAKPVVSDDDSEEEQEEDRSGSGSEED

T1 sequence (P51531 whole entry, species assumed): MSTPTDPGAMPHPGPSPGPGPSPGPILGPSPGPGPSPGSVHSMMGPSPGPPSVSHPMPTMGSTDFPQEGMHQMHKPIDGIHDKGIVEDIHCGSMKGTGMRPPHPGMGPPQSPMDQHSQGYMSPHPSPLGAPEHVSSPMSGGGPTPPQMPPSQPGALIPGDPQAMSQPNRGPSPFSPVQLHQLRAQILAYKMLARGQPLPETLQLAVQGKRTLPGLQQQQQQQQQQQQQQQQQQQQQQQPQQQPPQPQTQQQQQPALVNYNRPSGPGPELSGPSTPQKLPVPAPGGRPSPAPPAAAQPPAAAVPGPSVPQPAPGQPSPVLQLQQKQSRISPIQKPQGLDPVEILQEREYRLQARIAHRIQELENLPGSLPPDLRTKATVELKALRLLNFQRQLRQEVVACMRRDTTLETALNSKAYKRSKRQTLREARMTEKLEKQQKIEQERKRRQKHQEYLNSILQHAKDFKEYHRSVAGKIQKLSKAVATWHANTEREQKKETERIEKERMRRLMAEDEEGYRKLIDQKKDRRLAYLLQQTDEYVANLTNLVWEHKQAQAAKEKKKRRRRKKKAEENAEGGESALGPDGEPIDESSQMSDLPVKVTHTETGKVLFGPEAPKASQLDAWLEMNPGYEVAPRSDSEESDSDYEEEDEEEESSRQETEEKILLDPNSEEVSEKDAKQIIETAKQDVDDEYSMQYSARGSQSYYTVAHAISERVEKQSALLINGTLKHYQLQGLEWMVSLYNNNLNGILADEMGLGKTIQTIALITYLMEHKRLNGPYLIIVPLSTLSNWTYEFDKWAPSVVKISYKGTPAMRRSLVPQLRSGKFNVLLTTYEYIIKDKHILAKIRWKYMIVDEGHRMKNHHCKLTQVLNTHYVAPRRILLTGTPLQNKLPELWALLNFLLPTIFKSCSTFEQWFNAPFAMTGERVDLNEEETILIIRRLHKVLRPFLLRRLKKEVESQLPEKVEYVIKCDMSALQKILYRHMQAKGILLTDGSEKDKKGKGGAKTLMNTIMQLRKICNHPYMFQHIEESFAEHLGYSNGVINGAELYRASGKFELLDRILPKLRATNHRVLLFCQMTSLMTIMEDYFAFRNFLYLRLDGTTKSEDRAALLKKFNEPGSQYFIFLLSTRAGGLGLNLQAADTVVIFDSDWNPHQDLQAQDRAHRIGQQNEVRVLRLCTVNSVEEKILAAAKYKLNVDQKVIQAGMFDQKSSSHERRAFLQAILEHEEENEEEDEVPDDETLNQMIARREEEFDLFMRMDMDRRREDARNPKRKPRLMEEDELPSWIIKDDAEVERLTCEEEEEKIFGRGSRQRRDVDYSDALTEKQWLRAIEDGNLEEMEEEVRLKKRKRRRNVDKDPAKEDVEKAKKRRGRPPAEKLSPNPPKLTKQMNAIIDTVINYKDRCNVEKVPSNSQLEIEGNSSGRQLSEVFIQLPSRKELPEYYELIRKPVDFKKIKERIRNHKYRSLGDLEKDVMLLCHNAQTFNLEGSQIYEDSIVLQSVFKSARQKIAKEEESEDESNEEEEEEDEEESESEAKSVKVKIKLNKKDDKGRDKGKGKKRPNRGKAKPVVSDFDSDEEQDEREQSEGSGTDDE

Structure (SMILES)	DC50 [1]	Dmax [1]	Fold Selectivity SMARCA4/2 [1]	Dmax [2]	DC50 [2]
CN(C(=O)C1(c2cnn(C)c2)CCN(c2cnnc(-c3ccccc3O)c2)CC1)C1CCN(CC2CCN(c3ccc(C4CCC(=O)NC4=O)cc3)CC2)CC1 (racemic) [Example 89, rac-N-{1-[(1-{4-[(3R)-2,6-dioxopiperidin-3-yl]phenyl}piperidin-4-yl)methyl]piperidin-4-yl}-1-[6-(2-hydroxyphenyl)pyridazin-4-yl]-N-methyl-4-(1-methyl-1H-pyrazol-4-yl)piperidine-4-carboxamide]	3.8 nM	82.1%	2634	47.3%	
O=C1CC[C@H](c2ccc(N3CCC(CN4CC5CC(NC(=O)C6(c7ccccc7)CCN(c7cnnc(-c8ccccc8O)c7)CC6)C4C5)CC3)cc2)C(=O)N1 (stereo partly drawn) [Example 47, N-{2-[(1-{4-[(3R)-2,6-dioxopiperidin-3-yl]phenyl}piperidin-4-yl)methyl]-2-azabicyclo[2.2.1]heptan-6-yl}-1-[6-(2-hydroxyphenyl)pyridazin-4-yl]-4-phenylpiperidine-4-carboxamide]		7.19%	1	2.09%	
O=C1CCC(c2ccc(N3CCC(CN4CC5(C4)CN(C(=O)C4(c6ccccc6)CCN(c6cnnc(-c7ccccc7O)c6)CC4)C5)CC3)c(F)c2F)C(=O)N1 (racemic) [Example 138, rac-(3R)-3-(2,3-difluoro-4-{4-[(6-{1-[6-(2-hydroxyphenyl)pyridazin-4-yl]-4-phenylpiperidine-4-carbonyl}-2,6-diazaspiro[3.3]heptan-2-yl)methyl]piperidin-1-yl}phenyl)piperidine-2,6-dione]	4.09 nM	89%	9	67.1%	38.3 nM
Cn1nccc1C1(C(=O)N2CC3(CN(CC4CCN(c5ccc(C6CCC(=O)NC6=O)cc5)CC4)C3)C2)CCN(c2cnnc(-c3ccccc3O)c2)CC1 (racemic) [Example 93, rac-(3R)-3-(4-{4-[(6-{1-[6-(2-hydroxyphenyl)pyridazin-4-yl]-4-(1-methyl-1H-pyrazol-5-yl)piperidine-4-carbonyl}-2,6-diazaspiro[3.3]heptan-2-yl)methyl]piperidin-1-yl}phenyl)piperidine-2,6-dione]	21.1 nM	69.8%	474	33.8%	
O=C1CCC(c2ccc(N3CCC(CCN4CC5(C4)CN(C(=O)C4(OC6CCCCC6)CCN(c6cnnc(-c7ccccc7O)c6)CC4)C5)CC3)cc2)C(=O)N1 (racemic) [Example 121, rac-3-(4-(4-(2-(6-(4-(cyclohexyloxy)-1-(6-(2-hydroxyphenyl)pyridazin-4-yl)piperidine-4-carbonyl)-2,6-diazaspiro[3.3]heptan-2-yl)ethyl)piperidin-1-yl)phenyl)piperidine-2,6-dione]	14.9 nM	74.3%	671	29.3%	
O=C1CC[C@H](c2ccc(OCC3CCN(CC4CCN(C(=O)C5(c6ccccc6)CCN(c6cnnc(-c7ccccc7O)c6)CC5)CC4)CC3)cc2)C(=O)N1 [Example 36, (3R)-3-[4-({1-[(1-{1-[6-(2-hydroxyphenyl)pyridazin-4-yl]-4-phenylpiperidine-4-carbonyl}piperidin-4-yl)methyl]piperidin-4-yl}methoxy)phenyl]piperidine-2,6-dione]	32.3 nM	63.9%	309.98	27.4%	
O=C1CCC(NC(=O)c2cc(N3CCN(C(=O)C4(c5ccccc5)CCN(c5cnnc(-c6ccccc6O)c5)CC4)CC3)ccn2)C(=O)N1 (racemic) [Example 1, rac-N-[(3r)-2,6-dioxopiperidin-3-yl]-4-(4-{1-[6-(2-hydroxyphenyl)pyridazin-4-yl]-4-phenylpiperidine-4-carbonyl}piperazin-1-yl)pyridine-2-carboxamide]		35.2%	1	13%	
C[C@H]1C[C@H](NC(=O)C2(c3ccccc3)CCN(c3cnnc(-c4ccccc4O)c3)CC2)CCN1C(=O)CN1CCC(c2ccc([C@H]3CCC(=O)NC3=O)cc2)CC1 (racemic) [Example 76, n-((2s,4r)-1-(2-(4-(4-((rs)-2,6-dioxopiperidin-3-yl)phenyl)piperidin-1-yl)acetyl)-2-methylpiperidin-4-yl)-1-(6-(2-hydroxyphenyl)pyridazin-4-yl)-4-phenylpiperidine-4-carboxamide]	9.53 nM	83.5%	1049	24.7%	
Cc1ccnn1C1(C(=O)N(C)C2CCN(CC3CCN(c4ccc(C5CCC(=O)NC5=O)cc4)CC3)CC2)CCN(c2cnnc(-c3ccccc3O)c2)CC1 (racemic) [Example 96, rac-N-{1-[(1-{4-[(3R)-2,6-dioxopiperidin-3-yl]phenyl}piperidin-4-yl)methyl]piperidin-4-yl}-1-[6-(2-hydroxyphenyl)pyridazin-4-yl]-N-methyl-4-(5-methyl-1H-pyrazol-1-yl)piperidine-4-carboxamide]	4.3 nM	87.1%	9	60%	39.6 nM
O=C1CC[C@H](c2ccc(N3CCC(CN4CCCC4C4CCCCN4C(=O)C4(c5ccccc5)CCN(c5cnnc(-c6ccccc6O)c5)CC4)CC3)cc2)C(=O)N1 (stereo partly drawn) [Example 42, (3R)-3-[4-(4-{[2-(1-{1-[6-(2-hydroxyphenyl)pyridazin-4-yl]-4-phenylpiperidine-4-carbonyl}piperidin-2-yl)pyrrolidin-1-yl]methyl}piperidin-1-yl)phenyl]piperidine-2,6-dione]		28.7%	1	9.32%	
O=C1CC[C@H](c2ccc(N3CCC(CN4CCC(NC(=O)C5(c6ccccn6)CCN(c6cnnc(-c7ccccc7O)c6)CC5)CC45CCC5)CC3)cc2)C(=O)N1 (stereo partly drawn) [Example 182, N-{5-[(1-{4-[(3R)-2,6-dioxopiperidin-3-yl]phenyl}piperidin-4-yl)methyl]-5-azaspiro[3.5]nonan-8-yl}-1-[6-(2-hydroxyphenyl)pyridazin-4-yl]-4-(pyridin-2-yl)piperidine-4-carboxamide]	2.76 nM	82.5%	23	57.1%	62.6 nM
O=C1CCC(c2ccc(N3CCC(CCN4CC5(CCCN(C(=O)C6(c7ccccc7)CCN(c7cnnc(-c8ccccc8O)c7)CC6)C5)C4)CC3)cc2)C(=O)N1 (racemic) [Example 167, rac-(3R)-3-(4-{4-[2-(6-{1-[6-(2-hydroxyphenyl)pyridazin-4-yl]-4-phenylpiperidine-4-carbonyl}-2,6-diazaspiro[3.5]nonan-2-yl)ethyl]piperidin-1-yl}phenyl)piperidine-2,6-dione]	40.1 nM	67.5%	16	23.7%	659 nM
O=C1CCC(c2ccc(N3CCC(F)(CN4CC5(C4)CN(C(=O)C4(c6ccccc6)CCN(c6cnnc(-c7ccccc7O)c6)CC4)C5)CC3)nc2)C(=O)N1 (racemic) [Example 19, rac-(3R)-3-(6-{4-fluoro-4-[(6-{1-[6-(2-hydroxyphenyl)pyridazin-4-yl]-4-phenylpiperidine-4-carbonyl}-2,6-diazaspiro[3.3]heptan-2-yl)methyl]piperidin-1-yl}pyridin-3-yl)piperidine-2,6-dione]	24.4 nM	77.9%	6.42	57%	156 nM
